# Experimental data from PMC11391452, “Fruits from Rosa roxburghii: A Valuable Bioresource of Potent Radical Scavengers and Novel Ursane-Type Triterpenoids” (ACS Omega, 2024).
# “Also recorded” adds a separate entry of the source.
# Assays:
# [1] = DPPH radical scavenging capacity assay; details: for EC50 / DPPH EC50: pure compounds, 30 min, 517 nm, ascorbic acid positive control; for free radical scavenging effect in comparison to ascorbic acid, in words: DPPH assay
# Procedure: The DPPH radical scavenging capacity assay was performed according to a previously described method with slight modifications.[34] Briefly, the tested compounds or extracts were dissolved in a small volume of DMSO to generate a 10 mM or 100 mg mL^–1 (for the extracts) stock solution and diluted to generate the final testing solution with methanol. The 0.2 mM fresh DPPH methanol solution was prepared daily. The 90 μL of methanolic solution of DPPH was added to 60 μL of tested compound solution with different concentrations (or 60 μL of methanol as blank) in 96-well plates and allowed to react for 30 min at ambient temperature in the dark. The absorbance (OD) was measured at 517 nm on an Infinite M200 Pro (Tecan, Austria) microplate reader. The level of the DPPH• scavenging activity was calculated as [drawing 1] The EC50 values were calculated by using GraphPad Prism 8 software 4.6.
# COX-1 = target: T1, COX-1 (Ovis aries, UniProt P05979); assay: COX (ovine) colorimetric inhibitor screening assay, COX-1; format: biochemical; details: for COX-1 inhibition, in words: in comparison to acetaminophen, Figure 3 A
# T1 construct: purchased Cayman 760110
# T1 sequence (P05979 25-600): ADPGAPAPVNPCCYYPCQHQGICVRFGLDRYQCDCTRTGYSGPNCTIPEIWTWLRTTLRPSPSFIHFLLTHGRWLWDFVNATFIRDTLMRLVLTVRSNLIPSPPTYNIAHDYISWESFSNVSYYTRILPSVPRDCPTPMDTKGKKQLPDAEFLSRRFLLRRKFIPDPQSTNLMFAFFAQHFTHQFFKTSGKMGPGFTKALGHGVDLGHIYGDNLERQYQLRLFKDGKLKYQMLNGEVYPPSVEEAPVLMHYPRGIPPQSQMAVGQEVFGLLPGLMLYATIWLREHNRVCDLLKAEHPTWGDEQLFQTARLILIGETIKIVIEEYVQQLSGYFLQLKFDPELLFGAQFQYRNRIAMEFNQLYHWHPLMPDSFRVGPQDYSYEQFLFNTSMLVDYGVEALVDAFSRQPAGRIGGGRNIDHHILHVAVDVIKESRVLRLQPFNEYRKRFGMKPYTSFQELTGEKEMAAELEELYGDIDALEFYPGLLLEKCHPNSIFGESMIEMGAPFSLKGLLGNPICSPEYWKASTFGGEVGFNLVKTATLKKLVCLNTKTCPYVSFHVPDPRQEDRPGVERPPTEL
# Procedure: (§1) Each compound was assayed in triplicate, and GraphPad Prism 8 software was used to calculate EC50 values. All statistical analyses were performed by Microsoft Excel.
# COX-2 = target: T2, COX-2 (Ovis aries, UniProt P79208); assay: COX (ovine) colorimetric inhibitor screening assay, COX-2; format: biochemical; details: for COX-2 inhibition, in words: in comparison to acetaminophen, Figure 3 A
# T2 construct: purchased Cayman 760110
# T2 sequence (P79208 17-603): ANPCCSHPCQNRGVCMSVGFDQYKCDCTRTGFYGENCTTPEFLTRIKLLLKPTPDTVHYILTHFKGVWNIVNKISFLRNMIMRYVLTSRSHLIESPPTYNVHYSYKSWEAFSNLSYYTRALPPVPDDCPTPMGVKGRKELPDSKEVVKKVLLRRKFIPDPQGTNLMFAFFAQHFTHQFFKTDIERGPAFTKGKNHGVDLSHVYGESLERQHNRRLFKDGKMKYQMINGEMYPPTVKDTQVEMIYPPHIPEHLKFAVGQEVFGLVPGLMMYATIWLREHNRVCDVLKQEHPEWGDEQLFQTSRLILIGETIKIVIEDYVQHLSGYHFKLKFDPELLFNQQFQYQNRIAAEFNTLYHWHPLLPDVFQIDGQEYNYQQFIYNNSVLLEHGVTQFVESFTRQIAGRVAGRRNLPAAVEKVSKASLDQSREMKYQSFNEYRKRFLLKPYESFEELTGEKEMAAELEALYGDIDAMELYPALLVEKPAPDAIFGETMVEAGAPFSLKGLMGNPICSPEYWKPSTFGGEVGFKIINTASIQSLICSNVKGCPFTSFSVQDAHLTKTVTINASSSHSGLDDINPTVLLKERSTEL
# Procedure: as §1
# HepG2 cells = assay: Hepatoprotective assay (APAP-exposed cells, cell viability); format: cell-based; details: tested concentration of 100 μM (method 50 μM), 20 mM APAP, Figure 3 B1
# Procedure: HepG2 cells were seeded into 96-well tissue culture dishes at 5 × 10^3 cells/well and cultured overnight in DMEM medium supplemented with 10% FBS and 1% penicillin/streptomycin antibiotics at 37 °C in a humidified 5% CO2 incubator. The cells were then incubated with test compounds at 50 μM or extracts at 200 mg mL^–1 for 4 h before acetaminophen (APAP) exposure. After this pretreatment, the experimental group was treated with 20 mM APAP together with the compounds; the APAP-only group was treated with 20 mM neomycin and an equivalent volume of DMSO; and the control group was treated with an equivalent volume of DMSO without APAP or test compounds. After another 24 h of culture, the cell viability was then measured using the CellTiter 96 Aqueous One Solution Cell Proliferation Assay kit (Promega, USA).[12]
# HaCaT cells = assay: Anti-aging bioassay (UV-B irradiation model and viability assay, MTS); format: cell-based, Human; details: samples 25 μM, 24 h
# Procedure: Human HaCaT cells were cultured routinely in DMEM (high glucose) supplemented with 10% fetal bovine serum and 1% penicillin–streptomycin solution in a humidified incubator at 37 °C and 5% CO2.[19] All cells were cultured in culture dishes, and the medium was changed every day. The cells were cultured when the cell density reached 80%. Briefly, the HaCaT cells were cultured for 24 h after plating at a density of 4 × 10^4 cells/100 μL in 96-well plates. Subsequently, cells were irradiated according to the grouping using a 20 W UV–B lamp (SiTing, Shanghai, CN) at a distance of 10 cm for 5 s. The irradiation dose was calculated to be approximately 0.80 J cm^–2. Cells were divided into the following groups: control, UV–B alone, and UV–B + samples (25 μM). After UV–B irradiation, HaCaT cells continued to culture for 24 h with the medium containing compounds to be measured. The effects of those compounds on cell protection were determined by the MTS assay (BestBio, Shanghai, CN). After incubation, cells in each well were treated with 20 μL MTS solution for 1 h. The absorbance at 490 nm was measured directly with a microplate reader (FlexStation3, Molecular Devices, CA, US). Cell viability was expressed as the ratio percentage of MTS after deducting background value, assuming that the absorbance of control cells with deducting background absorbance was 100%.
# [2] = pure compounds, acetaminophen positive control
Structure (SMILES),EC50 [1] [µM],"free radical scavenging effect in comparison to ascorbic acid, in words [1]","COX-1 inhibition, in words (COX-1)",EC50 (COX-1; [2]) [µM],"COX-2 inhibition, in words (COX-2)",EC50 (COX-2; [2]) [µM],"hepatoprotective effect (cell viability of HepG2 cells), in words (HepG2 cells)",COX-1 EC50 (COX-1; [2]),COX-2 EC50 (COX-2; [2]),"anti-aging effect (cell viability after UV-B irradiation), in words (HaCaT cells; Figure 3 B2)",DPPH EC50 [1],"anti-aging effect (cell viability after UV-B irradiation), in words (HaCaT cells; Figure 3 B2, listed as rosaroxine C)","anti-aging effect (cell viability after UV-B irradiation), in words (HaCaT cells; Figure 3 B2, listed as 2-oxo-pomolic acid)"
"O=C1O[C@H]([C@@H](O)CO)C(O)=C1O [Ascorbic acid, ascorbic acid, reference compound]",31.3,–,–,–,–,–,–,–,–,–,–,–,–
"O=C(O)c1cc(O)c(O)c(O)c1 [Compound 21, gallic acid]",10,powerful free radical scavenging effects,high inhibition rates,40,high inhibition rates,26.3,–,–,–,–,–,–,–
"O=C(O)c1ccc(O)c(O)c1 [Compound 22, protocatechuic acid]",15.2,powerful free radical scavenging effects,–,–,–,–,no protective effects,no activity,no activity,most active compounds,–,–,–
"CC1(C)C(O)C(=O)CC2(C)C1CCC1(C)C2CC=C2C3C(C(=O)O)(CCC(C(=O)O)C3(C)O)CCC21C (centres unmarked) [Compound 3, rosaroxine C]",–,–,significant activities; also recorded: high inhibition rates,40.3,significant activities; also recorded: high inhibition rates,37.4,no protective effects,–,–,most active compounds,no activity,performed well,–
"O=c1c(O)c(-c2ccc(O)c(O)c2)oc2cc(O)cc(O)c12 [Compound 16, quercetin]",13.1,powerful free radical scavenging effects,high inhibition rates,33.1,high inhibition rates,18.8,no protective effects,–,–,–,–,–,–
"CC(=O)Nc1ccc(O)cc1 [Acetaminphen, acetaminophen, reference compound]",–,–,–,> 100,–,45,–,–,–,–,–,–,–
"Oc1cc(O)c2c(c1)OC(c1ccc(O)c(O)c1)C(O)C2 (centres unmarked) [Compound 15, catechin]",13.4,powerful free radical scavenging effects,high inhibition rates,29,–,53.3,no protective effects,–,–,–,–,–,–
"C[C@@H]1CC[C@]2(C(=O)O)CC[C@]3(C)C(=CC[C@@H]4[C@@]5(C)CC(=O)[C@H](O)C(C)(C)[C@@H]5CC[C@]43C)[C@@H]2[C@]1(C)O [Compound 5, 2-oxo-pomolic acid]",–,–,significant activities; also recorded: high inhibition rates,28.2,significant activities; also recorded: high inhibition rates,16.6,no protective effects,–,–,most active compounds,no activity,–,performed well
